# Where a SMILES comes first, the peptide text is derived from it. [ ]: non-standard residue; d: D form. The star is where a group is joined. Sta = CC(C)C[C@H](N)[C@@H](O)CC(=O)O; Isovaleryl = CC(C)CC(=O)*
# Biological target: T1, PvNod41 (nodulin 41) (Phaseolus vulgaris, UniProt G1FTR5)
# T1 construct: gene Nod41; native mature enzyme purified from 21 dpi root nodules; 437-residue precursor, 22-residue putative signal peptide and 50-residue prosegment removed; single chain, 41 kDa on SDS-PAGE
# T1 sequence (G1FTR5 73-437): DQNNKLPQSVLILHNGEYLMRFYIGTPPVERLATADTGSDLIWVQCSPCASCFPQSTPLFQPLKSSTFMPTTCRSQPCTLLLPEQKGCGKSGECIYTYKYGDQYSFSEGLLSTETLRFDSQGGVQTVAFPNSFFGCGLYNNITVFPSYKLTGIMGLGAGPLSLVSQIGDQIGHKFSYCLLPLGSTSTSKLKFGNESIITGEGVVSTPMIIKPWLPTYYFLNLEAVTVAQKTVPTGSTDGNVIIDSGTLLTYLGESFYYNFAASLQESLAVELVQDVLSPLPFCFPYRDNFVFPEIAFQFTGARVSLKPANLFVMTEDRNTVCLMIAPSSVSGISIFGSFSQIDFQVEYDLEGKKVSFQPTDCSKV
# Assay: casein degradation, SDS-PAGE densitometry
# Assay type: biochemical
# Details: 2 µM, casein substrate, 50 mM sodium citrate, pH 4.5, 37°C, 15 min preincubation
# Description: casein degradation, SDS-PAGE densitometry on PvNod41 (nodulin 41)
structure (smiles),measurement,value
CC(C)CC(=O)N[C@H](C(=O)N[C@H](C(=O)N[C@@H](CC(C)C)[C@@H](O)CC(=O)N[C@@H](C)C(=O)N[C@@H](CC(C)C)[C@@H](O)CC(=O)O)C(C)C)C(C)C [Pepstatin A] (Isovaleryl-VV[Sta]A[Sta]-OH),% of residual activity (n = 3),55 (± 5) %
